The subject of one test is MEF. Put plainly: Cytotoxicity against FKBP deficient MEF cells by MTT assay. The note with it: Mus musculus. The class given is cell-based.
A short description of test [1]: Cytotoxicity against mouse wild type fibroblast cells by MTT assay. Format: cell-based.

Each structure is given as a SMILES string.

`CN(Cc1cnc2nc(N)nc(N)c2n1)c1ccc(C(=O)NC(CCC(=O)O)C(=O)O)cc1` (single isomer, unassigned) [METHOTREXATE]: the half-maximal inhibitory concentration (IC50) in the test with MEF amounted to 120 nM; in test [1] it was 180 nM.

The values are drawn from ChEMBL document CHEMBL1147928, “Engineering small molecule specificity in nearly identical cellular environments” (Bioorg Med Chem Lett, 2007).
